[ ]: non-standard residue; d: D form.
Assays:
[1] = tested on: human M21-L melanoma tumor; test: Tumor regression in the CAM assay, M21-L; type: in vivo, chick
Procedure: (§1) As described in Example 5, in addition to visually assessing the effect of anti-αvβ3 antagonists on growth factor or tumor induced angiogenesis, the effect of the antagonists was also assessed by measuring any changes to the tumor mass following exposure. For this analysis, the tumor-induced angiogenesis CAM assay system was prepared as described in Example 4C. At the end of the 7 day incubation period, the resulting tumors were resected from the CAMs and trimmed free of any residual CAM tissue, washed with 1 ml of phosphate buffer saline and wet weights were determined for each tumor.
(§2) To further assess the effects of αvβ3 antagonists on tumor growth and survival, fragments of human melanoma and fragments of carcinomas of the lung, pancreas, and larynx were placed on CAMS of 10-day old embryos as described in Example 3A.
Human M21-L melanoma tumor fragments (50 mg) were implanted on the CAMs of 10 day old embryos as described in Example 3A and 3C. Twenty four hours later, embryos received a single intravenous injection of 300 μg/100 μl of either the cyclo-RADfV (69601) and or cyclo-RGDfV (66203). After a total of 72 hours, tumors were removed, examined morphologically, and photographed with a stereo microscope.
Additional tumor regression assays were performed with the αvβ3-reactive peptide 85189 (SEQ ID NO: 15) against 69601 as a control. […]

[2] = target: T1, immobilized αvβ3 receptor (Homo sapiens, UniProt P05106+P06756); test: Ligand receptor binding assay with ELISA detection
T1 construct: selected purified integrins were separately immobilized in Titertek microtiter wells
T1 sequence (P06756 31-889 limits assumed): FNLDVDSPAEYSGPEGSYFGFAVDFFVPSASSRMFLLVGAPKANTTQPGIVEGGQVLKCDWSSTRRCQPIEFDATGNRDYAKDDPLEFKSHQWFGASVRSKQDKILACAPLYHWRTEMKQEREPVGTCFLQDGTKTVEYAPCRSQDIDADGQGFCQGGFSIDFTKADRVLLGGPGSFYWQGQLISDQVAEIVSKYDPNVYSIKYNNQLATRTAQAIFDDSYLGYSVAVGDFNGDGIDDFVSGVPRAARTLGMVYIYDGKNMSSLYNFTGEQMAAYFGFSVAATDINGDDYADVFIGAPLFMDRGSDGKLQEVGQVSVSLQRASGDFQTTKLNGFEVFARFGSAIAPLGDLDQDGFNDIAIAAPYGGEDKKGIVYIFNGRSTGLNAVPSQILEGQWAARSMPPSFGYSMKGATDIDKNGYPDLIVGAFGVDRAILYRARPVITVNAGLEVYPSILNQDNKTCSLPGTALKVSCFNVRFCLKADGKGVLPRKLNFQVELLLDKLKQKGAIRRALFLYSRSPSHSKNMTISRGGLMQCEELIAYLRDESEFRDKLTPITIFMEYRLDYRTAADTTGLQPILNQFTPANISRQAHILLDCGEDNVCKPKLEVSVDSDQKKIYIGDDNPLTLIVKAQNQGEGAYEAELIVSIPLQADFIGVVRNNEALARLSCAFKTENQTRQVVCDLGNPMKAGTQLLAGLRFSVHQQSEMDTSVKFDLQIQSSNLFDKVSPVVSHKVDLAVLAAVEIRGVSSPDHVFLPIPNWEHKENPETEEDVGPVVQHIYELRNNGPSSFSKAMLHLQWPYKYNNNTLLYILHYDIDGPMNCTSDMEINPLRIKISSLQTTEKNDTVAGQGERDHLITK
T1 sequence (P06756 891-1048 partner limits assumed): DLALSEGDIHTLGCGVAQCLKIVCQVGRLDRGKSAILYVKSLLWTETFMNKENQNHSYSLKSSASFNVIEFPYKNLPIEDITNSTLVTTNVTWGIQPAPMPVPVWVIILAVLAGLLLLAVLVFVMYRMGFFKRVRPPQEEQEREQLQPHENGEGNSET
T1 sequence (P05106 27-788): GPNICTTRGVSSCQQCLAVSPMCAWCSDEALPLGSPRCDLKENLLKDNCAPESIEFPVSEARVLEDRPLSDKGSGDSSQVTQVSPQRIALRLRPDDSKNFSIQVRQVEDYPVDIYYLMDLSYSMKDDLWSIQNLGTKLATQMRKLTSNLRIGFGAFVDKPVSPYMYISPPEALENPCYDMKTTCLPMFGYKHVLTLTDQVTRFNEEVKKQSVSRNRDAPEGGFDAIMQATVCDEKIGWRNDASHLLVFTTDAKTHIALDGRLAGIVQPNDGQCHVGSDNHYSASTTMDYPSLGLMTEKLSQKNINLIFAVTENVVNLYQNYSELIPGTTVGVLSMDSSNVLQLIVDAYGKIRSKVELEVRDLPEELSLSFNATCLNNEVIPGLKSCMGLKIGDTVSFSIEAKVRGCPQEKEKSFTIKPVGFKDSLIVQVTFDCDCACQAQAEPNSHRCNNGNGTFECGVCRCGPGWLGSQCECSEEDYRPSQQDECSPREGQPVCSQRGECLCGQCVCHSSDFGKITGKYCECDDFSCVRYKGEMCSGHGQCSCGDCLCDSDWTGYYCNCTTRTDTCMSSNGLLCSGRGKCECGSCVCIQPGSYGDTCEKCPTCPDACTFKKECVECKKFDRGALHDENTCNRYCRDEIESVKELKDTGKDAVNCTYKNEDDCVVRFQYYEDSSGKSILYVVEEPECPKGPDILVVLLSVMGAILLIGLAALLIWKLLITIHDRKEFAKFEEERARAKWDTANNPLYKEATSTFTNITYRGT
Procedure: In addition, the ability of peptides to inhibit the binding of either MMP-2 or VN to immobilized αvβ3 was assessed with peptides 69601 (SEQ ID NO: 6) and 66203 (SEQ ID NO: 5).

[3] = tested on: bFGF-induced angiogenesis; test: CAM assay, growth factor-induced angiogenesis, intravenous application; type: in vivo, chick; conditions: for inhibition of bFGF-induced angiogenesis (branch points): intravenous 18 hours after bFGF induction, FIG. 12
Procedure: J. Pathol., 79:597 (1975). CAMs were prepared from chick embryos for subsequent induction of angiogenesis and inhibition thereof as described in Examples 4 and 5, respectively. Ten day old chick embryos were obtained from McIntyre Poultry (Lakeside, Calif.) and incubated at 37° C. with 60% humidity. A small hole was made through the shell at the end of the egg directly over the air sac with the use of a small crafts drill (Dremel, Division of Emerson Electric Co. Racine Wis.). A second hole was drilled on the broad side of the egg in a region devoid of embryonic blood vessels determined previously by candling the egg. […] A 1.0 centimeter (cm)×1.0 cm square window was cut through the shell over the dropped CAM with the use of a small model grinding wheel (Dremel). The small window allowed direct access to the underlying CAM.
Angiogenesis was induced by placing a 5 millimeter (mm)×5 mm Whatman filter disk (Whatman Filter paper No.1) saturated with Hanks Balanced Salt Solution (HBSS, GIBCO, Grand Island, N.Y.) or HBSS containing 150 nanograms/milliliter (ng/ml) recombinant basic fibroblast growth factor (bFGF) (Genzyme, Cambridge, Mass.) on the CAM of a 10-day chick embryo in a region devoid of blood vessels and the windows were latter sealed with tape. In other assays, 125 ng/ml bFGF was also effective at inducing blood vessel growth. For assays where inhibition of angiogenesis ws evaluated with intravenous injections of antagonists, angiogenesis was first induced with 1-2 μg/ml bFGF in fibroblast growth medium. Angiogenesis was monitored by photomicroscopy after 72 hours. CAMs were snap frozen, and 6 um cryostat sections were fixed with acetone and stained by immunofluorescence as described in Example 3C with 10 μg/ml of either anti-β1 monoclonal antibody CSAT or LM609.
For CAM preparations in which angiogenesis was induced with 1-2 μg/ml bFGF as previously described, synthetic peptides 69601 (control) and 66203 (SEQ ID NO: 5) were separately intravenously injected into CAM preparations 18 hours after bFGF induction of angiogenesis. The preparations were maintained for an additional 36-40 hours after which time the number of branch points were determined as previously described.
In other assays, peptide 85189 (SEQ ID NO: 15) was evaluated for inhibiting bFGF-induced angiogenesis in the CAM assay over a dosage range of 10 μg/embryo to 300 μg/embryo. The assay was performed as previously described.
In still further assays, peptide 85189 was compared to peptides 69601 and 66203 for anti-angiogenesis activity. The assay was performed as described above with the exception that 50 μg peptide were used.
The effectiveness of the different salt formulations of peptide 85189 was also evaluated in similar bFGF-induced CAM assays. The peptides were used at 100 μg/embryo. […] Untreated CAMs, labeled as “no cytokine” had approximately […] as many branch points as that seen with bFGF treatment, respectively 70 versus 190.
With the above-described protocol, the effect of MMP-2 fusion proteins, CTMMP-2(2-4), also referred to as CTMMP-2(445-467) and CTMMP-2(10-1), also referred to as CTMMP-2(274-637) was also evaluated. The assay was performed as previously described with the exception that 50 μg of fusion protein was administered to the bFGF-treated embryos. The effect of fusion protein treatment was assessed at 24 hours, 48 hours and 72 hours.
The 10 day old CAM preparation was used as previously described in Example 5A. Twenty-four hours after bFGF-induced angiogenesis was initiated, the organic peptidomimetics referred to as compounds 16 (81218), 17 (87292) and 18 (87293) were separately intravenously injected into the CAM preparation in a volume of 100 μl at a concentration of 1 mg/ml (100 μg/embryo) in 20% tetraglycol-PBS at pH 7.0. In parallel assays, compounds 7 (96112), 9 (99799), 10 (96229), 12 (112854) and 14 (96113) were similarly evaluated. […]

[4] = tested on: UCLAP-3 tumors; test: Tumor regression in the CAM assay, UCLAP-3; type: in vivo, chick; conditions: 100 μg intravenously 18 hours post-implantation; FIG. 15
Procedure: as §1, §2
Additional tumor regression assays were performed with the αvβ3-reactive peptide 85189 (SEQ ID NO: 15) against 69601 as a control. The assays were performed as described above with the exception that 100 μg of peptide was intravenously injected into the CAM at 18 hours post-implantation. After 48 hours more, the tumors were then resected and wet weights were obtained.

Substance | inhibition of vessel formation in tumor ([1]; single intravenous injection of 300 μg/100 μl, 72 hours) | inhibition of binding of MMP-2 or VN to immobilized αvβ3 [2] | inhibition of bFGF-mediated angiogenesis ([3]; 50 μg peptide, FIG. 14) | inhibiting angiogenesis, HCl versus TFA peptide ([3]; assays of Example 5) | inhibition of bFGF-induced angiogenesis (branch points) [3] | effect on tumor weight, M21-L ([1]; 100 μg intravenously 18 hours post-implantation, FIG. 16) | effect on tumor weight, UCLAP-3 [4] | inhibition of bFGF-induced angiogenesis, salt formulations ([3]; 100 μg/embryo) | number of branch points ([3]; 100 μg/embryo, bFGF alone 190, no cytokine 70) [branch points]
cyclo (RGDfV) [Peptide 66203] | inhibited vessel formation | effective at inhibiting the binding of either substrate | effective inhibitors of bFGF-mediated angiogenesis | slightly more effective | completely inhibited |  |  |  | 
cyclo (RADfV) (cyclo(RAD[dF]V); SMILES CC(C)[C@@H]1NC(=O)[C@@H](Cc2ccccc2)NC(=O)[C@H](CC(=O)O)NC(=O)[C@H](C)NC(=O)[C@H](CCCNC(=N)N)NC1=O) [Peptide 69601, reference compound] |  | failed to have an effect with either ligand |  |  | absence of inhibition | lack of effect | lack of effect | no effect on inhibiting angiogenesis | 230

— patent US20040063790A1, “Methods for inhibition of angiogenesis” (The Scripps Research Institute, priority 1996, published 2004)
